Results: US9932339B2, “Helquats with heteroaromatic substituents, preparation thereof, and use thereof as G-quadruplex stabilizers” (USTAV ORGANICKE CHEMIE A BIOCHEMIE AV CR, V.V.I., priority 2014, dated 2018)

Experiments:
[1] = system: G-quadruplex in promoter region of the c-myc gene (NHE III1 segment); assay: Dual luciferase analysis with plasmid pGL4.10-myc (luc2) in HGC-27 cells; type: cell-based, human; details: Homo sapiens; for inhibition at 50 µM: HGC-27, text summary of tab. 5 (50 μmol·l^−1), read-out: inhibition of expression of firefly luciferase as compared to control; for activity at 50 µM: helquat 50 μmol · l^−1, HGC-27, firefly normalized to Renilla, 24 hours after transfection, read-out: luciferase expression relative to control (control = 100%)
Outline: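 HGC-27 cells were co-transfected 1:1 with pGL4.10-myc (luc2), whose firefly luciferase is driven by an 860 bp c-myc regulatory region containing the G-quadruplex-forming NHE III1 segment, and pRL-TK Renilla control, using X-tremeGENE HP DNA in OptiMEM. Compounds were added two hours post-transfection; luminescence read 24 hours after transfection was Renilla-normalized and expressed relative to control.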

c-myc protein = assay: Immunodetection of protein c-myc in HGC-27 cell lysates (Western blot); type: cell-based, human; details: 50 μmol · l^−1, 24 hour incubation, normalized to β-actin
Protocol: Determination of changes in c-myc protein expression (transcription factor) in cell lysates prepared from tumor cell line HGC-27 after treatment with test helquats (Tab. 7) was carried out by immunodetection after separation of proteins according to their size by gel electrophoresis (SDS-PAGE) and blotting.
To determine the influence helquats on expression of c-myc protein, the cells were cultured under standard conditions and in the exponential growth phase were seeded into flasks at a density of 25,000 cells/cm^2. The next day selected helquats were added at a concentration of 50 μmol·l^−1. After 24 hour incubation, the cell pellets were obtained and, after addition of RIPA buffer with protease inhibitors (PrIC) and phosphatases (PhIC) (for composition see Tab. 8) cell lysates were prepared. 150 μl of RIPA buffer was used for 10^7 cells. Protein concentrations in the lysates were measured by BCA method. Separation of proteins in the lysates was carried out on a 12% denaturing polyacrylamide gel. The separated proteins were transferred to PVDF membrane by Western blotting.
Incubation with primary mouse monoclonal antibody against the protein c-myc (dilution 1:1000 in “SignalBoost” reagent) was carried out overnight at 4° C., and then with the primary mouse anti-β-actin (1:5000 dilution in 5% milk in TBS-T buffer) at room temperature for 2 hours. Subsequently, the secondary horse monoclonal antibody conjugated to horseradish peroxidase (diluted 1:2000 in 5% milk in TBS-T buffer) binding to mouse IgG antibody was applied. C-myc proteins and β-actin bound to the membrane were visualized using detection kit (SuperSignal® West Femto Maximum Sensitivity Substrate, Cat. No. 34095, Thermo Fisher Scientific, Inc., USA) in the chemiluminescence detection system ImageQuant LAS 4000 Mini (Cat. No. 28-9558-13, GE Healthcare Life Sciences, USA). The amount of protein was quantified by densitometry in Quantity One software. The amount of c-myc in the samples was normalized to β-actin, and subsequently related to a control sample.

CCRF-CEM = assay: XTT cytotoxicity/proliferation assay, CCRF-CEM; type: cell-based; details: Homo sapiens, CCRF-CEM, 72 hours of treatment, read-out: IC50 CCRF CEM
Protocol: To assess the antiproliferative effects of the tested substances in vitro, tumor cell line CCRF-CEM derived from acute lymphoblastic leukemia and normal (healthy) HUVEC endothelial cells from umbilical vein were used. Both of these cell lines were cultured under optimal conditions for their growth in the appropriate medium in plastic bottles or plastic Petri dishes of various sizes (TPP, BD Biosciences) at 37° C., 5% CO2 and 95% humidity. HUVEC cells were purchased from BD Biosciences. CCRF-CEM cell line was obtained from ATCC/LGC Standards (American Type Cell Collection).
Suspension cell line CCRF-CEM is a continuous in vitro culture of acute lymphoblastic leukemia. Cell line CCRF-CEM was grown in RPMI 1640 medium (Sigma-Aldrich, cat. No. R8758) supplemented with 2 mmol·l^−1 glutamine (Invitrogen, cat. No. 35050-038), 10% fetal bovine serum (FBS; Sigma-Aldrich, cat. No. F9665), 100 IU/ml penicillin, 100 μg/ml streptomycin (Sigma-Aldrich, cat. No. P0781). Passaging was carried out 2-3 times a week. Population doubling time of CCRF-CEM cells under the used culture conditions is 20 hours.
For testing of the sensitivity of cell lines to studied helquats XTT cytotoxicity/proliferation assay for determination of cell viability was used. This method is based on the ability of metabolically active cells to reduce the yellow tetrazolium salt XTT to orange formazan. The rate of conversion is measured as the increase in absorbance at 492 nm and is proportional to the enzymatic activity of mitochondrial dehydrogenases and thus the number of metabolically active (viable) cells. The output is the IC50 value corresponding to the concentration of the test substance that causes a decrease in the number of viable cells by half (i.e. 50% slowdown of cell division) relative to the control, untreated population. Thus it reflects the effectiveness of the test substance towards the tested cell line.
Cells in exponential growth phase were plated into 96-well microtiter plate at a concentration of 3000 cells per well. Each well contained 90 μl of cell suspension. The following day, 10 μl of 10× concentrated test substances was added. Effect of helquats has been studied in the concentration range 1-100 μmol·l^−1 (or 1, 2.5, 5, 7.5, 10; 15; 25; 50 and 100 μmol·l^−1). In addition to the part of the plate containing the mentioned dilutions of test compounds there were always two control columns present, first column with medium alone (i.e. blank) and the second column with the cells in medium without test compounds (control). Into the blank and control wells the same volume of solvent (water) as the volume of the substances was added. After 72 hours of treatment with substances the measurement of viability was performed according to the manufacturer instructions. Briefly, into each well of a 96-well microtiter plate 50 μl of the prepared working solution of XTT (detection reagent) was added and then the microtiter plate was returned to the CO2 incubator. After 2 hours, the absorbance of each well at 492 nm (reference wavelength 690 nm) was measured using a multifunctional microplate reader (Tecan Genios, Austria).
The results of determination of the viability of cancer and normal cells after treatment with different concentrations of test substances are summarized in Table 9. […] Each concentration of a helquat was tested in triplicates within one IC50 value determination. Each of these IC50 value determinations was repeated in at least three independent experiments. Values above 100 μmol·l^−1 were obtained by extrapolation of data measured in the concentration range 0-100 μmol·l^−1 of helquats.

HUVEC = assay: XTT cytotoxicity/proliferation assay, HUVEC; type: cell-based, human; details: Homo sapiens, HUVEC, 72 hours of treatment, values above 100 μmol·l^−1 obtained by extrapolation, read-out: IC50 HUVEC
Protocol: To assess the antiproliferative effects of the tested substances in vitro, tumor cell line CCRF-CEM derived from acute lymphoblastic leukemia and normal (healthy) HUVEC endothelial cells from umbilical vein were used. Both of these cell lines were cultured under optimal conditions for their growth in the appropriate medium in plastic bottles or plastic Petri dishes of various sizes (TPP, BD Biosciences) at 37° C., 5% CO2 and 95% humidity. HUVEC cells were purchased from BD Biosciences. CCRF-CEM cell line was obtained from ATCC/LGC Standards (American Type Cell Collection). Normal human endothelial cells from the umbilical vein are adherent cells, which were grown in plastic Petri dishes coated with collagen I. The culture medium (E-STIMTM; BD Biosciences, cat. […] Then, 5 ml of complete culture media E-STIM™ was added and the cells were centrifuged (180×g, 7 minutes), resuspended and transferred in a desired amount in a new Petri dish with fresh medium. In the experiments cells between passages 3 and 8 (after thawing) were used. Population doubling time of HUVEC cells under the used culture conditions is 38 hours. For testing of the sensitivity of cell lines to studied helquats XTT cytotoxicity/proliferation assay for determination of cell viability was used. This method is based on the ability of metabolically active cells to reduce the yellow tetrazolium salt XTT to orange formazan. The rate of conversion is measured as the increase in absorbance at 492 nm and is proportional to the enzymatic activity of mitochondrial dehydrogenases and thus the number of metabolically active (viable) cells. […] Thus it reflects the effectiveness of the test substance towards the tested cell line. Cells in exponential growth phase were plated into 96-well microtiter plate at a concentration of 3000 cells per well. Each well contained 90 μl of cell suspension. The following day, 10 μl of 10× concentrated test substances was added. […] In addition to the part of the plate containing the mentioned dilutions of test compounds there were always two control columns present, first column with medium alone (i.e. blank) and the second column with the cells in medium without test compounds (control). Into the blank and control wells the same volume of solvent (water) as the volume of the substances was added. After 72 hours of treatment with substances the measurement of viability was performed according to the manufacturer instructions. Briefly, into each well of a 96-well microtiter plate 50 μl of the prepared working solution of XTT (detection reagent) was added and then the microtiter plate was returned to the CO2 incubator. After 2 hours, the absorbance of each well at 492 nm (reference wavelength 690 nm) was measured using a multifunctional microplate reader (Tecan Genios, Austria).

Compound | inhibition at 50 µM [1] [%] | activity at 50 µM [1] [%] | c-myc protein expression relative to control (control = 100%) (c-myc protein) [%] | IC50 (CCRF-CEM) [µM] | IC50 (HUVEC) [µM]
Cc1c(C)c2c(c3c1CC[n+]1ccc4ccccc4c1-3)-c1cccc(/C=C/c3cccc4c3oc3ccccc34)[n+]1CC2.O=S(=O)([O-])C(F)(F)F.O=S(=O)([O-])C(F)(F)F [VDJA-C13-8, (E)-11-(2-(dibenzo[b,d]furan-4-yl)vinyl)-6,7-dimethyl-4,5,8,9-tetrahydroisoquinolino[1,2-a]pyrido[1,2-k][2,9]phenanthroline-3,10-diium trifluoromethanesulfonate] | > 20 | 76 | 77 |  | 
CCOC(=O)c1cc(/C=C/c2cc[n+]3c(c2)-c2c(c(C)c(C)c4c2-c2c5ccccc5cc[n+]2CC4)CC3)c[nH]1.O=S(=O)([O-])C(F)(F)F.O=S(=O)([O-])C(F)(F)F [MJA-C8-28, (E)-13-(2-(5-(ethoxycarbonyl)-1H-pyrrol-3-yl)vinyl)-6,7-dimethyl-4,5,8,9-tetrahydroisoquinolino[1,2-a]pyrido[1,2-k][2,9]phenanthroline-3,10-diium trifluoromethanesulfonate] | > 20 | 72 | 23 |  | 
C(=C\c1cc2ccccc2o1)/c1cc(/C=C/c2cc3ccccc3o2)[n+]2c(c1)-c1c(ccc3c1-c1cccc[n+]1CC3)CC2.O=S(=O)([O-])C(F)(F)F.O=S(=O)([O-])C(F)(F)F [HTA-C9-17, 2,4-bis((E)-2-(benzofuran-2-yl)vinyl)-6,7,10,11-tetrahydrodipyrido[2,1-a:1′,2′-k][2,9]phenanthroline-5,12-diium trifluoromethanesulfonate] |  |  | 44 | 26 to 50 | ≥ 51
C(=C\c1ccc(-c2cccs2)s1)/c1cc(/C=C/c2ccc(-c3cccs3)s2)[n+]2c(c1)-c1c(ccc3c1-c1cccc[n+]1CC3)CC2.O=S(=O)([O-])C(F)(F)F.O=S(=O)([O-])C(F)(F)F [HTA-C9-16, 2,4-bis((E)-2-([2,2′-bithiophen]-5-yl)vinyl)-6,7,10,11-tetrahydrodipyrido[2,1-a:1′,2′-k][2,9]phenanthroline-5,12-diium trifluoromethanesulfonate] |  |  | 32 | 11 to 25 | 26 to 50
Cc1c(C)c2c(c3c1CC[n+]1ccc(/C=C/c4ccc(-n5c6ccccc6c6ccccc65)cc4)cc1-3)-c1c3ccccc3cc[n+]1CC2.O=S(=O)([O-])C(F)(F)F.O=S(=O)([O-])C(F)(F)F [MJA-C19-4, (E)-13-(4-(9H-carbazol-9-yl)styryl)-6,7-dimethyl-4,5,8,9-tetrahydroisoquinolino[1,2-a]pyrido[1,2-k][2,9]phenanthroline-3,10-diium trifluoromethanesulfonate] |  |  | 81 |  | 
C(=C\c1cccc2c1oc1ccccc12)/c1cc[n+]2c(c1)-c1c(ccc3c1-c1cccc[n+]1CC3)CC2.O=S(=O)([O-])C(F)(F)F.O=S(=O)([O-])C(F)(F)F [LSA-C13-8, (E)-2-(2-(dibenzo[b,d]furan-4-yl)vinyl)-6,7,10,11-tetrahydrodipyrido[2,1-a:1′,2′-k][2,9]phenanthroline-5,12-diium trifluoromethanesulfonate] | > 40 | 58 | 15 |  | 
CCCCCCc1ccc(/C=C/c2cc[n+]3c(c2)-c2c(c(C)c(C)c4c2-c2c5ccccc5cc[n+]2CC4)CC3)s1.O=S(=O)([O-])C(F)(F)F.O=S(=O)([O-])C(F)(F)F [MJA-C11-25, (E)-13-(2-(5-hexylthiophen-2-yl)vinyl)-6,7-dimethyl-4,5,8,9-tetrahydroisoquinolino[1,2-a]pyrido[1,2-k][2,9]phenanthroline-3,10-diium trifluoromethanesulfonate] |  |  | 66 |  | 
Cc1c(C)c2c(c3c1CC[n+]1ccc(/C=C/c4ccsc4)cc1-3)-c1cccc(/C=C/c3ccsc3)[n+]1CC2 (racemic) [MJB-C5-9, (rac)-8,9-dimethyl-2,13-bis((E)-2-(thiophen-3-yl)vinyl)-6,7,10,11-tetrahydrodipyrido[2,1-a:1′,2′-k][2,9]phenanthroline-5,12-diium trifluoromethanesulfonate] | > 20 | 75 | 30 |  | 
